Patent US9604973B2, “Anti-cancer polyketide compounds” (priority 2012, dated 2017)

Assay: Hydrolysis, NMR monitoring
Assay type: physicochemical
Conditions: neutral conditions; 10 mM in D2O/DMSO-d6 (10:1) at 37° C.
Procedure: FIG. 18A-18B: Hydrolysis of FD-895 (1a). FIG. 18A) NMR monitoring of the incubation of 10 mM 1a in D2O/DMSO-d6 (10:1) at 37° C. Hydrolysis occurs as marked by a shift of the C11 proton (large to small circles). Assignments of 3a, 3b and 3c were made based on coupling constant and gCOSY analyses. FIG. 18B) LdC-HRMS trace depicting the products at 143 h including acids 3a-3c (mass calcd. for C31H52O10Na=607.3453 m/z) along with unhydrolized 1a (mass calcd. for C31H50O9Na=589.3347 m/z). Exact masses [M+Na]^+ are provided for each peak.
Based on this observation, we turned our efforts to apply conventional SAR techniques to identify analogs with improved stability.

In the case of `CCC(OC)C(C)C1OC1C(O)C(C)/C=C/C=C(\C)C1OC(=O)CC(O)CCC(C)(O)C(OC(C)=O)/C=C/C1C` (stereo not shown) [FD-895], the hydrolysis is reported as “undergoes hydrolysis under neutral conditions”.
